US20230346717A1, “IDENTIFICATION AND USE OF COMPOUNDS IN THE TREATMENT OR PREVENTION OF SEVERE ACUTE RESPIRATORY SYNDROME CORONAVIRUS 2” (priority 2020, published 2023)
Counter-ions that a name gives are not always drawn.

Legend:
Format in all cases: cell-based, human
[1] = test system: ceroid-lipofuscinosis; test: Gene expression assay, lysosome gene ceroid-lipofuscinosis; conditions: ARPE-19/HPV-16, 10 μM, 24 h
Text: (§1) A drug screen was used to test agents having the potential to treat or prevent SARS-CoV-2 infection. The retinal pigment epithelia cell line, ARPE-19/HPV-16, was chosen to establish a database of drug profiles because of its non-cancerous, human origin, with a normal karyotype. ARPE-19/HPV-16 can be easily grown as monolayer in 96-well plates and expresses a variety of well known, neuronal, cell surface receptors that include the dopamine receptor D2, the serotonin receptors 1A, 2A, and 2C, the muscarinic receptor M3, and the histamine receptor H1.
(§2) Cell lines were propagated according to supplier's specifications (ATCC Manassas, VA). Compounds were obtained from Sigma (St. Louis, MO) or Vanda Pharmaceuticals (Washington, DC). Cells were aliquoted on 96-well plates (˜2×10^5 cells/well) and incubated for 24 hours prior to providing fresh media with a drug, or the drug vehicle (water, dimethyl sulfoxide, ethanol, methanol, or phosphate-buffered saline solution). Drugs were diluted 1000-fold in buffered Advanced D-MEM/F-12 culture medium (Invitrogen, Carlsbad, CA) containing nonessential amino acids and 110 mg/L sodium pyruvate. In these conditions, no significant changes of pH were expected, which was confirmed by the monitoring of the pH indicator present in the medium.
A final 10 μM drug concentration was chosen because it is believed to fit in the range of physiological relevance. Microscopic inspection of each well was conducted at the end of the treatment to discard any samples where cells had morphological changes consistent with apoptosis. It was also verified that the drug had not precipitated in the culture medium.
Cells were harvested 24 hours after treatment and RNA was extracted using the RNeasy 96 protocol (Qiagen, Valencia, CA). Gene expression for 22,238 probe sets of 12,490 genes was generated with U133A2.0 microarrays following the manufacturer's instructions (Affymetrix, Santa Clara, CA). Drugs were profiled in duplicate or triplicate, with multiple vehicle controls on each plate. A total of 708 microarrays were analyzed including 74 for 18 antipsychotics, 499 for 448 other compounds, and 135 for vehicle controls.
The raw scan data were first converted to average difference values using MAS 5.0 (Affymetrix). The average difference values of both treatment and control data were set to a minimum threshold of 50 if below 50. For each treatment instance, all probe sets were then ranked based on their amplitude, or level of expression relative to the vehicle control (or average of controls when more than one was used). Amplitude was defined as the ratio of expression (t−v)/[(t+v)/2] where t corresponds to treatment instance and v to vehicle instance. […]

[2] = test system: MAR3; test: Gene expression assay, lysosome gene MAR3; conditions: probe 213256_at; ARPE-19/HPV-16, 10 μM, 24 h
Text: as §1
as §2, with “In these conditions, no significant changes of pH were expected, which was confirmed by the monitoring of the pH indicator present in the medium.” left out
(§3) Cells were harvested 24 hours after treatment and RNA was extracted using the RNeasy 96 protocol (Qiagen, Valencia, CA). […] A total of 708 microarrays were analyzed including 74 for 18 antipsychotics, 499 for 448 other compounds, and 135 for vehicle controls. […]

[3] = test system: RAB38; test: Gene expression assay, lysosome gene RAB38; conditions: probe 219412_at; ARPE-19/HPV-16, 10 μM, 24 h
Text: as §1
as §2, with “In these conditions, no significant changes of pH were expected, which was confirmed by the monitoring of the pH indicator present in the medium.” left out
as §3

[4] = test system: N-acetyl-6-sulfatase; test: Gene expression assay, lysosome gene N-acetyl-6-sulfatase; conditions: probe 212334_at; ARPE-19/HPV-16, 10 μM, 24 h
Text: as §1
as §2, with “In these conditions, no significant changes of pH were expected, which was confirmed by the monitoring of the pH indicator present in the medium.” left out
as §3

[5] = test system: CTSL; conditions: ARPE-19/HPV-16 cells, 10 μM drug, 24 hours
Text: Each drug group profile was created using a novel Weighted Influence Model, Rank of Ranks (WIMRR) method which underscores the rank of each probe set across the entire gene expression profile rather than the specific change in expression level. WIMRR takes the average rank of each probe set across all of the members of the group and then re-ranks the probe sets from smallest average rank to largest average rank. A gene-set enrichment metric based on the Kolmogorov-Smirnov (KS) statistic.
Applicant analyzed expression profile of CTSL across all 466 drugs tested. In order to find positive hits and selected only those results that caused decrease of CTSL expression by at least 33% (1.5-fold down).

[6] = test system: GJA1; test: Gene expression assay, lysosome gene GJA1; conditions: probe 201667_at; ARPE-19/HPV-16, 10 μM, 24 h
Text: as §1
as §2, with “In these conditions, no significant changes of pH were expected, which was confirmed by the monitoring of the pH indicator present in the medium.” left out
as §3

[7] = test system: SCARB2; test: Gene expression assay, lysosome gene SCARB2; conditions: probe 201647_s_at; ARPE-19/HPV-16, 10 μM, 24 h
Text: as §1
as §2, with “In these conditions, no significant changes of pH were expected, which was confirmed by the monitoring of the pH indicator present in the medium.” left out
as §3

`NC12CC3CC(CC(C3)C1)C2` [Amantadine Hydrochloride] was tested, and the “avg_tx (log2) ceroid-lipofuscinosis” value ([1]; probe 204085_s_at) was 5.93 log2, the “diff (log2) ceroid-lipofuscinosis” value ([1]; probe 204085_s_at) was −1.74 log2 and the “avg_tx (log2) ceroid-lipofuscinosis” value ([1]; probe 214252_s_at) was 6.13 log2. For the same compound, the “diff (log2) ceroid-lipofuscinosis” value ([1]; probe 214252_s_at) was −1.57 log2, the “avg_tx (log2) MAR3” value [2] was 5.55 log2 and the “diff (log2) MAR3” value [2] was −1.57 log2. For the same compound, the “avg_tx (log2) RAB38” value [3] was 6.51 log2, the “diff (log2) RAB38” value [3] was −1.3 log2 and the “avg_tx (log2) N-acetyl-6-sulfatase” value [4] was 9.71 log2. For the same compound, the “diff (log2) N-acetyl-6-sulfatase” value [4] was −1.27 log2, the “log2(treated) CTSL” value [5] was 9.62 log2 and the “log2 difference (CTSL, treated vs control)” value [5] was −0.70 log2. The “avg_tx (log2) GJA1” value [6] was 11.23 log2, the “diff (log2) GJA1” value [6] was −1.76 log2 and the “avg_tx (log2) SCARB2” value [7] was 6.97 log2. The “diff (log2) SCARB2” value [7] was −1.63 log2.
